Values of other authors, collected in paper PMC9054096 (RSC Advances, 2020).

How the values were obtained:
Human galectin-3 = Human galectin-3 (Homo sapiens, UniProt P17931); conditions: read-out: Galectin-3 affinity (Kd); reference compound
Human galectin-4C = molecular target: T1, Human galectin-4C (Homo sapiens, UniProt P56470); conditions: read-out: Galectin-4C affinity (Kd); reference compound
T1 sequence (P56470 194-323 limits assumed): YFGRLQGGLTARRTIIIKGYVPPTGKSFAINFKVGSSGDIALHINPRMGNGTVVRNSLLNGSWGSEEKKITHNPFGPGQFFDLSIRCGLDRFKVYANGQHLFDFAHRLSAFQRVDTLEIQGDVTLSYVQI

Human galectin-9C = Human galectin-9C (Homo sapiens, UniProt O00182); conditions: read-out: Galectin-9C affinity (Kd); reference compound
Human galectin-4N = molecular target: T2, Human galectin-4N (Homo sapiens, UniProt P56470); conditions: read-out: Galectin-4N affinity (Kd); reference compound
T2 sequence (P56470 19-150 limits assumed): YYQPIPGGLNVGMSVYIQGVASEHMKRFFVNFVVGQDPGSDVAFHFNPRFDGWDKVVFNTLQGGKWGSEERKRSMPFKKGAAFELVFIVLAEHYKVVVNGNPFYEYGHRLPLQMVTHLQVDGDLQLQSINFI

Human galectin-1 = Human galectin-1 (Homo sapiens, UniProt P09382); conditions: read-out: Galectin-1 affinity (Kd); reference compound
Human galectin-9N = Human galectin-9N (Homo sapiens, UniProt O00182); conditions: read-out: Galectin-9N affinity (Kd); reference compound
Chain of Human galectin-9N (O00182 17-148 limits assumed): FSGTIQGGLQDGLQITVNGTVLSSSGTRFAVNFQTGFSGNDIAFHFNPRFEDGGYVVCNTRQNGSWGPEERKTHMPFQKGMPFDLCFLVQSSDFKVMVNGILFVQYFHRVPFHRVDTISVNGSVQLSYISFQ

Chain of Human galectin-9C (O00182 227-355 limits assumed): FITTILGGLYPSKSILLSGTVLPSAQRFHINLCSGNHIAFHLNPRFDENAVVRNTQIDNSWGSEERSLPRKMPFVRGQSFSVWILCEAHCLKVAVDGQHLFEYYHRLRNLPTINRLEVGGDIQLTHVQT
Chain of Human galectin-1 (P09382 whole entry): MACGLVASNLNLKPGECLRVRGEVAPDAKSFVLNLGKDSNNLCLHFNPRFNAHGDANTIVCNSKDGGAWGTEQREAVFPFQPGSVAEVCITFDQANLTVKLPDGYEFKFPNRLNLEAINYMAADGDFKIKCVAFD
Chain of Human galectin-3 (P17931 whole entry): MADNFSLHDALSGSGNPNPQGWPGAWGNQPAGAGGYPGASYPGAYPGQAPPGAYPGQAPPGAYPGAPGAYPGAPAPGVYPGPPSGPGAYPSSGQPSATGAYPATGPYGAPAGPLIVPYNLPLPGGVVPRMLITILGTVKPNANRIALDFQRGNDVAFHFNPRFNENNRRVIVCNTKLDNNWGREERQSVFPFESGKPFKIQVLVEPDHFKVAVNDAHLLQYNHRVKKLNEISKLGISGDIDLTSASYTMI

**Q.** What does the source list for `O=C(O)c1ccc2ccc(CO[C@@H]3[C@@H](O)[C@@H](Sc4ccc(Cl)c(Cl)c4)O[C@H](CO)[C@@H]3O)nc2c1` [Compound 2, 3,4-dichlorophenyl 3-O-(7-carboxy-quinolin-2-yl-methyl)-1-thio-α-D-galactopyranoside]?
**A.** Kd (Human galectin-3): 1270 ± 70 nM; Kd (Human galectin-4C): 43 ± 5.7 µM; Kd (Human galectin-9C): 14 ± 1.3 µM; Kd (Human galectin-4N): 43 ± 7.1 µM; Kd (Human galectin-1): 48 ± 4.4 µM; Kd (Human galectin-9N): 2060 ± 90 nM
